Measured values from PubChem BioAssay AID179 (DTP/NCI, 2004).
Values joined by “and” are separate entries in the source; they are usually repeats but may differ in a detail not shown here. Equal values may be shown once. Active and inactive are the calls of the source.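 How the source made its calls: active means compounds giving half or more protection of infected cells from virus-caused growth loss, again on retest; inactive means the rest.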 Where a SMILES comes first, the peptide text is derived from it. Bridges are numbered along the chain shown (N, C = ends). [ ]: non-standard residue; d: D form. Orn = NCCC[CH](N)C(=O)O

System: CEM cells HIV-1 protection, formazan growth assay
Assay: NCI AIDS Antiviral Assay
Details: for IC50: measured here: growth of uninfected CEM cells
Outline: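 Human CEM cells, uninfected and HIV-1-infected, exposed to five drug concentrations; growth measured by soluble formazan assay and scored as percent protection from infection, with protecting compounds retested.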

C=Cc1c(Cl)nc(C)c(C)c1-c1ccc(OC)c(OC)c1OCc1ccccc1 showed an EC50 of over 200 µM and an IC50 of 25.1 µM.

O=[N+]([O-])c1cccc(C2=NN(c3ccccc3)C3c4ccccc4OCC23)c1 (stereo not given) gave an EC50 of over 7.41 µM and an IC50 of over 7.41 µM.

COC(=O)C(CC=O)C(=O)C(=O)Nc1cccc(C(F)(F)F)c1 (stereo not given) was tested, and the EC50 was over 282 µM and the IC50 was over 282 µM.

CN1C[C@H]2[C@@H](C1=O)[C@H](c1ccc([N+](=O)[O-])cc1)ON2C was tested, and the EC50 was over 200 µM and the IC50 was over 200 µM.

NN1CCc2ccccc2C1 showed an EC50 of over 200 µM and an IC50 of over 200 µM.

Work on COc1ccc2c(c1)CCN1CCc3ccccc3CC21 (stereo not given) yielded an EC50 of over 200 µM and an IC50 of 53.7 µM.

COc1ccc(NC(=O)CC(=O)NN)cc1 gave an EC50 of over 200 µM and an IC50 of over 200 µM.

In the case of CCOC(=O)CC(C)OC1CCCCO1 (stereo not given), the outcome is reported as “inactive”.

Compound Cc1ccc2ccc3ccc(C)nc3c2n1.Cc1ccc2ccc3ccc(C)nc3c2n1.O=C1OC(C(O)C[O-])C(O)=C1O.[Cu+] has an EC50 of over 12.6 µM and an IC50 of 0.0871 µM.

With COc1ccccc1/C=C1\C(=O)N(C(=O)c2ccc(NC(C)=O)cc2)N=C1C the EC50 was over 19.1 µM and the IC50 was over 19.1 µM.

CSC1=NN(c2ccccc2)C(=O)C1=C(SC)SC gave an EC50 of over 200 µM and an IC50 of 25.1 µM.

NC(=O)C1CCCNC(=O)CC(NC(=O)C(N)Cc2ccc(O)cc2)C(=O)NC(Cc2ccccc2)C(=O)N1 (stereo not given) (H-YDF[Orn]-NH2; lactam 2-4; configuration not given here) showed an EC50 of over 100 µM and an IC50 of over 100 µM.

With O=C1[O][Hg][c]2cccc3cccc1c23 the outcome was “inactive”.

O=c1ccn(C2CC(F)C(CO)S2)c(=O)[nH]1 (stereo not given) was tested, and the EC50 was over 25.1 µM and the IC50 was over 25.1 µM.

In the case of CN(/N=C\c1ccnc2ccccc12)c1ccc([N+](=O)[O-])cc1, the outcome is reported as “inactive”.

Compound COc1ccc(-c2c(C#N)c(S)n(NS(=O)(=O)c3ccc(C)cc3)c(=O)c2C#N)cc1 has an EC50 of over 200 µM and an IC50 of 9.33 µM.

In the case of Cc1ccc(C2SC(N)=Nc3c2c(C)nn3C(=O)c2ccccc2O)cc1 (stereo not given), the EC50 is reported as over 20 µM and the IC50 is reported as 0.603 µM.

For CC(=O)Oc1ccc(C2SCc3nc4ccccc4n32)cc1 (stereo not given), the EC50 was over 200 µM and the IC50 was 18.2 µM.

Cn1c(SCc2ccc([N+](=O)[O-])cc2)nnc1C12CC3CC(CC(C3)C1)C2 was tested, and the EC50 was over 200 µM and the IC50 was 110 µM.

For COc1ccc(S(=O)(=O)N(CC(=O)O)c2ccccc2)cc1, the outcome was “inactive”.

With Cc1cc(C)nc(NS(=O)(=O)c2ccc(NC(=O)c3cccc4c(Nc5ccc(S(=O)(=O)Nc6cc(C)on6)cc5)c5ccccc5nc34)cc2)n1 the EC50 was over 35.5 µM and the IC50 was over 35.5 µM.

In the case of Nc1nc(Cl)cc(NCCCCCCNc2cc(Cl)nc(N)n2)n1, the outcome is reported as “inactive”.

For O=C1c2ccccc2C(=O)c2c1cc(S(=O)(=O)O)c(O)c2O, the outcome was “inactive”.

O=C1NC(=O)/C(=C/c2ccc(S(=O)(=O)N/N=C\C(O)C(O)C(O)CO)cc2)N1 (stereo not given) was tested, and the EC50 was over 200 µM and the IC50 was 135 µM and 191 µM.

With Cc1ccc(N(C(=O)CC(=O)N/N=C/c2ccccc2O)C(=O)c2ccccc2)cc1 the outcome was “inactive”.

In the case of NCC1Nc2ccccc2[C@@H](O)C1O (stereo not given in full), the EC50 is reported as over 933 µM and the IC50 is reported as over 933 µM.

COc1cc2c(cc1OC)C1Cc3cc(OC)c(OC)cc3C(C2)O1 was tested, and the EC50 was over 200 µM and the IC50 was 105 µM.

For O=C1C2c3[nH]c4ccccc4c3C3CCSCC3C2C(=O)N1c1ccccc1 (stereo not given), the outcome was “inactive”.

In the case of CCCN(CCCC(NC(C)=O)C(=O)NCc1ccccc1)C(=O)N(CCCl)N=O (stereo not given), the outcome is reported as “inactive”.

C=C[C@]1(O[Si](C)(C)C)C[C@@]2(C(=O)OCC)C(O)C(=O)N3CCc4cc(OC)c(OC)cc4[C@]312 (stereo not given in full) showed an EC50 of over 200 µM and an IC50 of over 200 µM.

With CN1C(=O)[C@@H]2[C@@H]3c4ccccc4N(S(=O)(=O)C(F)(F)F)[C@@H]3c3[nH]c4ccccc4c3[C@@H]2C1=O the EC50 was over 200 µM and the IC50 was 9.33 µM.

[N-]=[N+]=NC1=NNC2(C(=O)N1)c1ccccc1-c1ccccc12 showed an EC50 of over 100 µM and an IC50 of over 100 µM.

NCCCNCCCCNCCCNCc1c2ccccc2c(CNCCCNCCCCNCCCN)c2ccccc12 showed an EC50 of over 1820 µM and an IC50 of 3.8 µM.

Work on O=[N+]([O-])/C=C/c1c[nH]c2c1ccc1ccccc12 yielded an EC50 of over 200 µM and an IC50 of 4.27 µM.

Cc1ccc(C2=C(c3ccccc3)C(=O)C(c3ccccc3)=C2c2ccc(C)cc2)cc1 showed an EC50 of over 87.1 µM and an IC50 of over 87.1 µM.

O=S1(=O)CCN(Cc2ccccc2)/C1=N\S(=O)(=O)c1ccc(Cl)cc1 was tested, and the EC50 was over 200 µM and the IC50 was 17 µM.

In the case of CN1CCC(CNC(=O)CCCCCCCCC(=O)NCC2(c3ccccc3)CCN(C)CC2)(c2ccccc2)CC1, the EC50 is reported as 97.7 µM and > 100 µM and the IC50 is reported as over 100 µM.

With CO[C@H](C(=O)[C@@H](O)[C@@H](C)O)[C@@H]1Cc2cc3cc(OC4CC(OC5CC(O)C(O)C(C)O5)C(O)C(C)O4)c(C)c(O)c3c(O)c2C(=O)[C@H]1OC1CC(OC2CC(OC3CC(C)(O)C(O)C(C)O3)C(O)C(C)O2)C(O)C(C)O1 (stereo not given in full) the EC50 was over 0.0302 µM and the IC50 was over 0.0302 µM.

COc1cc2c(cc1O)C(CSC)Cc1cc3c(cc1N(C)CC2)OCO3 (stereo not given) gave an EC50 of over 148 µM and an IC50 of 12 µM.

With O=c1ccc2cc3ccoc3c(OCCOCCOCCOCCOc3c4occc4cc4ccc(=O)oc34)c2o1 the EC50 was over 79.4 µM and the IC50 was 10.7 µM.

For COc1cc(C[C@H]2C(=O)OC[C@@H]2C(=O)c2ccc(OC(C)C)c(O)c2)cc(OC)c1O, the EC50 was over 2 µM and the IC50 was 0.49 µM.

COc1ccc2c(c1OC)CC1COCC21 (stereo not given) gave an EC50 of over 200 µM and an IC50 of over 200 µM.

COC(=O)C1CCC(=O)N1C(c1ccccc1)c1ccc(OC)c(OC)c1 (stereo not given) was tested, and the EC50 was over 200 µM and the IC50 was over 200 µM.

CC(C)(C)C1CCC(C[Se]c2ccc(Cl)cc2)([N+](=O)[O-])CC1 (stereo not given) was tested, and the outcome was “inactive”.

In the case of O=c1[nH]c(=S)[nH]c2c1CN(CCCN1CCOCC1)CN2, the EC50 is reported as over 794 µM and the IC50 is reported as 49 µM.
